From patent US20230339886A1 (University of Florida Research Foundation, Incorporated, priority 2020, published 2023)

Target: T1, REV-ERBα LBD (human; residues 281-614 Δ324-422) (Homo sapiens, UniProt P20393, DEL324-422)
T1 construct: 6×Histag-REV-ERBα LBD (human; residues 281-614 Δ324-422); made in house; host or cells: Escherichia coli
Assay: TR-FRET corepressor interaction assay (REV-ERBα LBD, FITC-SMRT peptide)
Format: biochemical
Conditions: FITC-SMRT peptide, read-out: REVERBα agonism (EC50 class, FRET assay)
Procedure: TR-FRET corepressor interaction assay. The time-resolved fluorescence resonance energy transfer (TR-FRET) assay was performed in black low-volume 384-well plates (Greiner). […] Ligand stocks were prepared via serial dilution in DMSO, added to wells in triplicate, and plates were incubated at 4° C. for 2 h and read using a BioTek Synergy Neo multimode plate reader. The Tb donor was excited at 340 nm; its fluorescence emission was monitored at 495 nm, and the acceptor FITC emission was measured at 520 nm; and the TR-FRET ratio was calculated as the signal at 520 nm divided by the signal at 495 nm. Data were plotted using GraphPad Prism as TR-FRET ratio vs. ligand concentration and fit to sigmoidal dose response curve equation.

T1 sequence (P20393 with tags, fused parts or gaps DEL324-422): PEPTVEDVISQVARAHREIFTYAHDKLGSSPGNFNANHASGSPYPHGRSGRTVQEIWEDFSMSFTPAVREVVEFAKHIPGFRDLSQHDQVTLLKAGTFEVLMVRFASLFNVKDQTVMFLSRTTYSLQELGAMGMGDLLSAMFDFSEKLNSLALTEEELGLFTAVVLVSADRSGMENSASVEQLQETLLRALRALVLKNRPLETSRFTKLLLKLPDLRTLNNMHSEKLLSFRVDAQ
T1 sequence (Q9Y618 2335-2356 partner limits assumed): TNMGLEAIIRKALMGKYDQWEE

EC50	Structure (SMILES)
< 500 nM	CC(C)(C)Cn1cc([C@H](NS(=O)(=O)C2CCC2)C(F)(F)F)c2cc(F)c(-c3cccnc3C#N)cc21 (racemic) [Example 529, (S)—N-(1-(6-(2-cyanopyridin-3-yl)-5-fluoro-1-neopentyl-1H-indol-3-yl)-2,2,2-trifluoroethyl)cyclobutanesulfonamide]

Same assay, conditions: Table 2, read-out: REVERBα agonism (EC50 class, FRET assay)

Structure (SMILES)	EC50
CC(C)Cn1cc(CCNS(C)(=O)=O)c2ccc(-c3ccncc3)cc21 [Compound 3]	500 to 3000 nM
CN(C)S(=O)(=O)NCCc1cn(CC2CCOC2)c2cc(-c3ccncc3)ccc12 (stereo not drawn) [Compound 9]	500 to 3000 nM
COc1cc(-c2ccc3c(CCNS(=O)(=O)N(C)C)cn(CC(C)C)c3c2)ccn1 [Compound 19]	500 to 3000 nM
CN(C)S(=O)(=O)NCCc1c[nH]c2cc(-c3ccncc3)ccc12 [Compound 40, dimethyl({2-[6-(pyridin-4-yl)-1H-indol-3-yl]ethyl}sulfamoyl)amine]	> 3000 nM
CC(=O)n1cc(CCNS(=O)(=O)N(C)C)c2ccc(-c3ccncc3)cc21 [Compound 42, 1-(3-{2-[(dimethylsulfamoyl)amino]ethyl}-6-(pyridin-4-yl)-1H-indol-1-yl)ethan-1-one]	> 3000 nM
CC(C)Cc1cn(C2CCN(S(=O)(=O)C(C)C)C2)c2ccc(-c3ccncc3)cc12 (stereo not drawn) [Compound 44]	500 to 3000 nM
Cc1noc(C)c1-c1ccc2c(CCNS(=O)(=O)N(C)C)cn(CC(C)C)c2c1 [Compound 64, ({2-[6-(3,5-dimethyl-1,2-oxazol-4-yl)-1-(2-methylpropyl)-1H-indol-3-yl]ethyl}sulfamoyl)dimethylamine]	> 3000 nM
CC(C)Cn1cc(CCNS(=O)(=O)N(C)C)c2ccc(-c3cnoc3)cc21 [Compound 65, dimethyl({2-[1-(2-methylpropyl)-6-(1,2-oxazol-4-yl)-1H-indol-3-yl]ethyl}sulfamoyl)amine]	500 to 3000 nM
CC(C)Cn1cc(CCNS(=O)(=O)N(C)C)c2ccc(-c3ncco3)cc21 [Compound 67, dimethyl({2-[1-(2-methylpropyl)-6-(1,3-oxazol-2-yl)-1H-indol-3-yl]ethyl}sulfamoyl)amine]	500 to 3000 nM
CC(C)Cn1cc(CCNS(=O)(=O)N(C)C)c2ccc(Nc3ccnn3C)cc21 [Compound 69, 3-{2-[(dimethylsulfamoyl)amino]ethyl}-N-(1-methyl-1H-pyrazol-5-yl)-1-(2-methylpropyl)-1H-indol-6-amine]	> 3000 nM
CC(C)Cn1cc(CCNS(=O)(=O)N(C)C)c2ccc(NC(=O)Cc3ccccc3)cc21 [Compound 70, N-(3-{2-[(dimethylsulfamoyl)amino]ethyl}-1-(2-methylpropyl)-1H-indol-6-yl)-2-phenylacetamide]	> 3000 nM
CC(C)Cn1cc(CCNS(=O)(=O)N(C)C)c2ccc(NC(=O)c3ccccc3)cc21 [Compound 71]	> 3000 nM
CC(C)Cn1cc(CCNS(=O)(=O)N(C)C)c2ccc(C3CCN(C(=O)OC(C)(C)C)CC3)cc21 [Compound 101, tert-butyl 4-(3-{2-[(dimethylsulfamoyl)amino]ethyl}-1-(2-methylpropyl)-1H-indol-6-yl)piperidine-1-carboxylate]	500 to 3000 nM
CC(C)Cn1cc(CCNS(=O)(=O)N(C)C)c2ccc(C3CCNCC3)cc21 [Compound 102, dimethyl({2-[1-(2-methylpropyl)-6-(piperidin-4-yl)-1H-indol-3-yl]ethyl}sulfamoyl)amine]	> 3000 nM
CC(=O)N1CCC(c2ccc3c(CCNS(=O)(=O)N(C)C)cn(CC(C)C)c3c2)CC1 [Compound 103, 1-[4-(3-{2-[(dimethylsulfamoyl)amino]ethyl}-1-(2-methylpropyl)-1H-indol-6-yl)piperidin-1-yl]ethan-1-one]	> 3000 nM
CC(C)Cn1cc(CCN(C)S(=O)(=O)N(C)C)c2ccc(C#N)cc21 [Compound 122, 3-{2-[(dimethylsulfamoyl)(methyl)amino]ethyl}-1-(2-methylpropyl)-1H-indole-6-carbonitrile]	> 3000 nM
CC(C)Cn1cc(CCN(C)S(=O)(=O)N(C)C)c2ccc(Br)cc21 [Compound 123, ({2-[6-bromo-1-(2-methylpropyl)-1H-indol-3-yl]ethyl}(methyl)sulfamoyl)dimethylamine]	500 to 3000 nM

Structure (SMILES)	EC50
CC(C)CC(=O)n1cc(CCNS(=O)(=O)N(C)C)c2ccc(-c3ccncc3)cc21 [Compound 155, 1-(3-{2-[(dimethylsulfamoyl)amino]ethyl}-6-(pyridin-4-yl)-1H-indol-1-yl)-3-methylbutan-1-one]	500 to 3000 nM
CN(C)S(=O)(=O)NCCc1cn(C(=O)C(C)(C)C)c2cc(-c3ccncc3)ccc12 [Compound 156, 1-(3-{2-[(dimethylsulfamoyl)amino]ethyl}-6-(pyridin-4-yl)-1H-indol-1-yl)-2,2dimethylpropan-1-one]	> 3000 nM
CCn1cc(CCNS(=O)(=O)N(C)C)c2ccc(Br)cc21 [Compound 157, {[2-(6-bromo-1-ethyl-1H-indol-3-yl)ethyl]sulfamoyl}dimethylamine]	500 to 3000 nM
COc1ccc2cc(-c3ccc4c(c3)c(CC(C)(C)C)cn4CCNS(=O)(=O)C3CC3)ccc2c1 [Compound 220]	> 3000 nM
CC(C)(C)Cc1cn(CCNS(=O)(=O)C2CC2)c2ccc(-c3ccc(F)c(F)c3)cc12 [Compound 226]	500 to 3000 nM
CC(C)Cn1cc(CCNS(=O)(=O)N(C)C)c2cc(-c3ccncc3)ccc21 [Compound 232]	> 3000 nM
CC(C)Cn1cc(CC(=O)NS(=O)(=O)N(C)C)c2ccc(-c3ccncc3)cc21 [Compound 234]	> 3000 nM
CC(C)Cn1cc(CCCNS(=O)(=O)N(C)C)c2ccc(-c3ccncc3)cc21 [Compound 235]	> 3000 nM
Cc1c(CCNS(=O)(=O)N(C)C)c2ccc(-c3ccncc3)cc2n1CC(C)C [Compound 236]	500 to 3000 nM
CN(C)S(=O)(=O)NCCc1cn(CCOC(C)(C)C)c2cc(-c3ccncc3)ccc12 [Compound 237]	500 to 3000 nM
CC(C)Cn1cc(CNS(=O)(=O)N(C)C)c2ccc(-c3ccncc3)cc21 [Compound 238]	500 to 3000 nM
CC(C)Cn1cc(CN(C)S(=O)(=O)N(C)C)c2ccc(-c3ccncc3)cc21 [Compound 246]	500 to 3000 nM
CC(C)Cn1cc(CCS(=O)(=O)C(C)C)c2ccc(Br)cc21 [Compound 247]	500 to 3000 nM
CC(C)Cn1cc(C(C)CNS(=O)(=O)C2CC2)c2ccc(-c3ccncc3)cc21 (stereo not drawn) [Compound 253]	500 to 3000 nM
CC(C)Cn1cc(C(C)CNS(=O)(=O)C(C)C)c2ccc(-c3ccccc3)cc21 (stereo not drawn) [Compound 254]	> 3000 nM
CC(C)Cn1cc(C(C)CNS(=O)(=O)N(C)C)c2ccc(-c3ccccc3)cc21 (stereo not drawn) [Compound 255]	500 to 3000 nM

Results, then the compound that gave them:

EC50	Structure (SMILES)
500 to 3000 nM	CC(C)(O)Cn1cc([C@H](NS(=O)(=O)C2CCC2)C(F)(F)F)c2ccc(-c3ccccc3C(F)(F)F)nc21 (racemic) [Example 412, N-[rac-(1S)-2,2,2-trifluoro-1-[1-(2-hydroxy-2-methyl-propyl)-6-[2-(trifluoromethyl)phenyl]pyrrolo[2,3-b]pyridin-3-yl]ethyl]cyclobutanesulfonamide]
< 500 nM	CC(C)Cn1cc(CCN(C)S(=O)(=O)N(C)C)c2ccc(-c3ccncc3)cc21 [Compound 5]
< 500 nM	CCCn1cc(CCNS(=O)(=O)N(C)C)c2ccc(-c3ccncc3)cc21 [Compound 6]
< 500 nM	CN(C)S(=O)(=O)NCCc1cn(CC2CC2)c2cc(-c3ccncc3)ccc12 [Compound 7]
< 500 nM	CN(C)S(=O)(=O)NCCc1cn(Cc2ccccc2)c2cc(-c3ccncc3)ccc12 [Compound 8]
< 500 nM	CC(C)C(=O)n1cc(CCNS(=O)(=O)N(C)C)c2ccc(-c3ccncc3)cc21 [Compound 43, 1-(3-{2-[(dimethylsulfamoyl)amino]ethyl}-6-(pyridin-4-yl)-1H-indol-1-yl)-2-methylpropan-1-one]
< 500 nM	CC(C)Cn1cc(CCNS(=O)(=O)N(C)C)c2ccc(-c3ccoc3)cc21 [Compound 66, ({2-[6-(furan-3-yl)-1-(2-methylpropyl)-1H-indol-3-yl]ethyl}sulfamoyl)dimethylamine]
< 500 nM	CC(C)Cn1cc(CCNS(=O)(=O)N(C)C)c2ccc(C#N)cc21 [Compound 96, 3-{2-[(dimethylsulfamoyl)amino]ethyl}-1-(2-methylpropyl)-1H-indole-6-carbonitrile]
< 500 nM	CC(C)Cn1cc(CCNS(=O)(=O)N(C)C)c2ccc(Br)cc21 [Compound 97, ({2-[6-bromo-1-(2-methylpropyl)-1H-indol-3-yl]ethyl}sulfamoyl)dimethylamine]
< 500 nM	CC(C)Cn1cc(CCNS(=O)(=O)N(C)C)c2ccc(-c3ccncc3C(F)(F)F)cc21 [Compound 206, dimethyl({2-[1-(2-methylpropyl)-6-[3-(trifluoromethyl)pyridin-4-yl]-1H-indol-3-yl]ethyl}sulfamoyl)amine]
< 500 nM	CC(C)Cn1cc(CNS(=O)(=O)N(C)C)c2ccc(-c3ccncc3)cc21 [Compound 239]
< 500 nM	CC(C)Cn1cc(CNS(=O)(=O)C2CCCC2)c2ccc(-c3ccncc3)cc21 [Compound 243]
< 500 nM	CC(C)Cn1cc(CNS(=O)(=O)N2CCCC2)c2ccc(-c3ccncc3)cc21 [Compound 244]
< 500 nM	CC(C)Cn1cc(CNS(=O)(=O)CC(C)C)c2ccc(-c3ccncc3)cc21 [Compound 245]
< 500 nM	CC(C)Cn1cc(CCS(=O)(=O)C(C)C)c2ccc(-c3ccncc3)cc21 [Compound 248]
< 500 nM	CC(C)Cn1cc(CCS(=O)(=O)C(C)C)c2ccc(C3CCCCC3)cc21 [Compound 250]
< 500 nM	CC(C)Cn1cc(C(C)CNS(=O)(=O)C(C)C)c2ccc(-c3ccncc3)cc21 (stereo not drawn) [Compound 251]
